Data: patent publication US7629317B2, “Control of growth and repair of gastro-intestinal tissues by gastrokines and inhibitors” (The University of Chicago, priority 2001, dated 2009)
“Also recorded” adds a separate entry of the source.

How the values were obtained:
Helicobacter pylori = experiment: Growth inhibition on a bacterial lawn (filter diffusion); assay type: cell-based; details: solution on filter
Experimental: To determine if AMP peptide inhibits growth of H. pylori, a lawn of bacteria was prepared on a culture dish. A small circular filter was placed in the center of the dish, a solution of a test agent was placed on the filter so it diffused onto the lawn, and its effect on bacterial growth around the filter was measured. AMP peptide 77-97 (SEQ ID NO: 12) (Table 1), a scrambled version of this AMP peptide (negative control) (SEQ ID NO: 19), or the antibiotic clarithromycin (positive control) was added to a filter on different cultures. […] In addition, AMP peptide could serve as a therapeutic agent to treat H. pylori infections in the stomach, and thereby prevent the capacity of this organism to cause gastritis, gastric ulcers, and gastric adenocarcinomas.

[1] = system: occludin, ZO-1, ZO-2, claudin-5, E-cadherin, JAM; experiment: Accumulation of tight and adherens junction proteins in C2 cells (immunoblot of insoluble fraction, confocal microscopy); assay type: cell-based, human; details: 8 hr; peptides 8 μg/ml, EGF 50 ng/ml
Experimental: To find out how the peptide exerts its cytoprotective effect, C2 cell monolayers were treated with AMP peptide, and oxidant injury was induced with monochloramine 18 hours later. Changes in the levels of specific tight junction (TJ) proteins were checked. Cells were lysed, and proteins of the insoluble/particulate fraction were studied by immunoblotting. […] This observation represents the first evidence that AMP peptide enhances accumulation of specific TJ proteins in colonic epithelial cells. […] To carry out this experiment, C2 cells were exposed to AMP peptide for different periods of time, the NP-40-insoluble fraction was obtained, Western blots were prepared, and the amount of each immunoreactive protein was quantified. A 65% increase in immunoreactivity of each protein compared to control was detected for occludin after 2 hr, and for ZO-1 at 8 hr. Hsc73, which is constitutively expressed in these cells, was not altered by exposure to AMP peptide for up to 18 hr.
Confluent monolayers of C2 cells were treated with AMP peptide or vehicle for 8 hr. Cells were then collected, proteins in the NP-40-insoluble fraction were separated by SDS-PAGE, immunoblots were prepared, and the relative amounts of immunoreactive proteins were compared by densitometric analysis. […] These changes appear relatively specific for occludin, ZO-1, ZO-2, claudin-5, E-cadherin, and JAM because they were not observed for several other proteins localized in the TJ (claudin-1, claudin-2), adherens junction (β-catenin), plasma membrane (Na-K-2Cl cotransporter, α or β subunit of Na-K-ATPase), or cytosol (Rho A, hsc73).
To better understand the mechanism(s) by which AMP peptide enhances accumulation of TJ-associated proteins, experiments were performed to determine whether the peptide exerted its effect at the apical or basolateral surface of C2 cells. Monolayers of C2 cells were grown on Transwell filters, AMP peptide (8:g/ml) was added to the apical or basolateral compartment of the Transwell, and cells were harvested 8 hr later. The NP-40-insoluble fraction was obtained, its proteins separated, and immunoblots were prepared.

[2] = system: BSC-1 epithelial cell line; experiment: Growth (mitogenesis) assay on confluent BSC-1 cells, cells counted 4 days later; assay type: cell-based, monkey; details: for K1/2; concentration for half-maximal growth stimulation / EC50: synthetic peptides of Table 1; for EC50: read-out: K1/2, concentration for half-maximal growth stimulation; for antagonism of the activity of peptide 78-119: inactive overlapping peptide with the mitogenic 42-mer; for antagonism of the activity of peptide 104-117: inactive peptide with the mitogenic 14-mer; for mitogenic activity (in words): compared with related peptides
From the text: Finding that a 42-amino acid peptide representing a central region of the novel antrum mucosal cell protein AMP-18 had mitogenic activity similar in character to that of the intact protein in pig and mouse antrum extracts (Table 1), has facilitated the characterization of the bio-active region of the molecule. […] Growth activity determinations have so far been accomplished with the kidney epithelial cell line as well as several gastric and intestinal lines.
Non-transformed monkey kidney epithelial cell line BSC-1 and other epithelial cell lines were used to assess effects on growth. In general, conditions were chosen for each line such that cells are grown to confluence in plastic dishes in supplemented growth medium with minimal calf (or fetal) serum for growth (Lieske et al., 1997); BSC-1 cells become confluent at 10^6/60 mm dish with 1% calf serum. At the start of the growth assay the medium on the confluent culture was aspirated and replaced with fresh medium with minimal serum to maintain viability (0.01% for BSC-1) cells. AMP-18 preparations were added to the culture medium and 4 days later the cell monolayer was rinsed, detached with trypsin, and the cells were counted using a hemocytometer. Determination of the capacity of AMP-18 to initiate DNA synthesis was measured by the incorporation of [^3H]thymidine (Toback, 1980); to confirm the DNA synthesis assay, autoradiograms of leveled cells were counted (Kartha and Toback, 1985).

IEC-18 cells = experiment: Growth of confluent cultures of IEC-18 cells (cell count); assay type: cell-based, rat
Experimental: Confluent cultures of IEC-18 cells were prepared. One day later, medium was aspirated and replaced with 5 ml of DMEM containing CS (0.5%) and insulin, without (control) or with mitogenic peptide 58-99 (8 μg/ml). Sister plates receiving 1 ml medium and different amounts of peptide 67-85 were incubated at 1 hr at 38° C. on a CO2 incubator, and then an additional 4 ml of medium was added to each dish. Peptide 58-99 was added to 2 of the 4-sister plates at each concentration of peptide 67-85, and the number of cells was counted. […] Stimulation of cell growth by mitogenic peptide 58-99 was completely abolished by preincubation of cells with 0.25 μg/ml of peptide 67-85. […] Values for the number of cells per culture are shown relative to multiplication of cells exposed to the vehicle during the same period.
Urea (6 M) was employed to release proteins from the insoluble fraction solubilize rhAMP-18 containing the His6-tag (SEQ ID NO: 16), and make it available to bind to the Ni^2+-charged resin from which it was subsequently eluted with a gradient of imidazole (0 to 200 mM). The amount of eluted rhAMP-18 was measured using the BCA assay, and the appearance of a single band at the predicted size of 19-20 kD was confirmed by SDS-PAGE followed by immunoblotting. To determine if eluted rhAMP-18 renatured to assume a structure that was mitogenic, aliquots of the eluate (following removal of urea and imidazole by dialysis) were added to cultures of IEC-18 cells and the number of cells was counted 4 days later. […] AMP peptide 77-97 refers to the mature protein; same as peptide 97-117 of human precursor protein: Table 1. These observations indicate that biologically active recombinant human AMP-18 that can be utilized in diverse clinical situations is available. The mitogenic potency of rhAMP-18 is in the nanomolar range which would be expected for a native gastric cell growth factor that participates in the maintenance and repair of the stomach in vivo.
(§1) To characterize the capacity of gastric and intestinal cells to respond to AMP-18, AGS gastric adenocarcinoma cells, HAE human gastric antrum mucosa primary cultures transformed with SV40 large T antigen, rat diploid small intestinal epithelial cells of the IEC-6 (FIG. 15) and IEC-18 lines, NCI N-87 gastric carcinoma cells, and SK-GT5 gastroesophageal adenocarcinoma cells were studied; human WI-38 fibroblasts and HeLa cells served as non-GI control cell lines. Mitogenesis was assayed by performing cell counts 3 to 4 days after exposing cells to the agent of interest, trypsinizing the culture to prepare single cells, and confirming this while counting them in a hemocytometer.

AGS cells = experiment: Growth of gastric epithelial AGS cells (cell count four days later); assay type: cell-based, human; details: for growth stimulation of AGS cells (in words): peptide 77-97 8 μg/ml, EGF 50 ng/ml at saturating doses
Experimental: as §1

CC[C@H]1OC(=O)[C@H](C)[C@@H](O[C@H]2C[C@@](C)(OC)[C@@H](O)[C@H](C)O2)[C@H](C)[C@@H](O[C@@H]2O[C@H](C)C[C@H](N(C)C)[C@H]2O)[C@](C)(OC)C[C@@H](C)C(=O)[C@H](C)[C@@H](O)[C@]1(C)O [clarithromycin]
growth of H. pylori lawn (Helicobacter pylori): inhibited growth

GKPLGQPGKVPKLDGKEPLAK [97–117**, scrambled version of AMP peptide 77-97, negative control, reference compound]
growth of H. pylori lawn (Helicobacter pylori; listed as scrambled AMP peptide): not | growth of H. pylori lawn (Helicobacter pylori; listed as scrambled peptide): did not inhibit growth | accumulation of occludin and ZO-1 (specificity) [1]: not replicated | growth stimulation of BSC-1 cells ([2]; concentrations up to 8 μg/ml): did NOT stimulate growth | growth stimulation of IEC-18 cells (in words) (IEC-18 cells; added alone, peptides up to 8 μg/ml): did NOT stimulate growth | growth stimulation of AGS cells (in words) (AGS cells): not stimulated

GPGG [110–113]
K1/2; concentration for half-maximal growth stimulation [2]: Inactive

KGPGGPPPK [109–117]
EC50 [2]: 2500 nM

KKEVMPSIQSLDALVKEKK [87–105]
antagonism of the activity of the protein in stomach extracts [2]: block | antagonism of the activity of peptide 78-119 [2]: block; also recorded: antagonize | antagonism of the activity of peptide 104-117 ([2]; listed as peptide 87-105): blocks; also recorded: antagonizes | K1/2; concentration for half-maximal growth stimulation [2]: Inactive | concentration nearly abolishing growth-stimulatory effect of peptide 58-99 (IEC-18 cells; FIG. 17): ~0.1 µg/mL | concentration completely abolishing growth stimulation by peptide 58-99 (IEC-18 cells; preincubation of cells, peptide 58-99 8 μg/ml): 0.25 µg/mL | inhibition of growth stimulation by peptide 58-99 (AGS cells): completely inhibits | growth stimulation of AGS cells (in words) (AGS cells): not stimulated

KKLQGK [104–109]
EC50 [2]: 7400 nM

KKLQGKGPGGPPPK [104–117, 14 amino acid mitogenic domain]
activity relative to the 42-amino acid peptide ([2]; from the higher K1/2 value): 30-40% | EC50 [2]: 800 nM

KKLQGKGPGGPPPKGLMY [104–111]
mitogenic activity (in words) [2]: slightly less activity | EC50 [2]: 1000 nM

KKTCIVHKMKK [78–88]
antagonism of the activity of the protein in stomach extracts [2]: block | antagonism of the activity of peptide 78-119 [2]: block; also recorded: antagonize | antagonism of the activity of peptide 104-117 ([2]; listed as 68-88): NOT | antagonism of the activity of peptide 104-117 ([2]; listed as peptide 78-88): does not | K1/2; concentration for half-maximal growth stimulation [2]: Inactive

KKTCIVHKMKKEVMPSIQSLDALVKEKKLQGKGPGGPPPKGL [78–119, 42 amino acid peptide of human preAMP-18, peptide 58-99 of the mature protein]
mitogenic activity (in words) [2]: good mitogenic activity | EC50 [2]: 300 nM | increase in cell number (IEC-18 cells; 3 days, peptide 58-99 8 μg/ml, EGF 50 ng/ml, vehicle 290%): 407%

LDALVKEKKLQGKGPGGPPPKGLMY [97–121]
mitogenic activity (in words) [2]: more active | EC50 [2]: 200 nM

LDTMVKEQK . . . GKGPGGAPPKDLMY (LDTMVKEQKGKGPGGAPPKDLMY) [97–119]
EC50 [2]: 200 nM

B1: intact AMP protein: the intact, natural gastrokine AMP-18 protein of antrum mucosa (protein)
chain: YTVNINGNDGNVDGSGQQSVSINGVHNVANIDNNNGWDSWNSLWDYENSFAATRLFSKKSCIVHRMNKDAMPSLQDLDTMVKEQKGKGPGGAPPKDLMYSVNPTRVEDLNTFGPKIAGMCRGIPTYVAEEIPGPNQPLYSKKCYTADILWILRMSFCGTSVETY
estimate for the activity of the intact AMP protein ([2]; estimate): 1 to 10 nM
